# Test results published in PMC5363373, “Zirconium tetraazamacrocycle complexes display extraordinary stability and provide a new strategy for zirconium-89-based radiopharmaceutical development” (Chemical Science, 2016).
# How the values were obtained:
# [1] = In vitro EDTA challenge study; assay type: physicochemical
# Procedure: In vitro EDTA challenge study. In vitro EDTA challenge study was carried out by adding 10 µL of each 89Zr-labeled complex (70 μCi, 2.59 MBq) to 500 µL of EDTA (10 mM, 50 mM and 100 mM: pH 5 and pH 7) with a 1:100, 1:500, and 1:1000 ratio of ligand/EDTA. The solutions (n=4) were incubated at 37 °C for 7 days in a thermomixer. Samples were analyzed at 30 min, 1 h, 3 h, 6 h, 1 d, 3 d, 5 d and 7 d post administration to EDTA by radio-TLC using Varian ITLC-SA strips and 0.1 M EDTA (pH 5) as the mobile phase and gamma counting using an energy window of 500-1500 keV and standard protocols .
# [2] = In vitro metal competition study; assay type: physicochemical; conditions: PBS pH 7.4, 37 C
# Procedure: In vitro Metal Competition study. To a solution of metal cations [iron (III) chloride, cobalt (II) chloride, zinc (II) chloride, copper (II) chloride, magnesium (II) chloride, gallium (III) nitrate, gadolinium (III) chloride] (1 mM, 200 µL), was added 89Zr-labeled complex (0.1 mM, 10 µL, 80 μCi, 2.96 MBq) in PBS, pH 7.4. The resulting solutions (n = 3) were incubated at 37 °C for 7 days in a thermomixer. Dissociation of 89Zr from 89Zr-complexes was monitored by radio-TLC at 2 h, 1 d, 4 d and 7 d time point. All studies were performed in triplicate.
# [3] = Biodistribution studies; assay type: in vivo, female NIH Swiss mice; conditions: mice
# Procedure: Biodistribution Studies. Biodistribution studies were conducted using a modified literature procedure. 7 Briefly, female NIH Swiss mice (6-8 wk old, n=6) were injected with each 89Zr-labeled complex (0.55 MBq (15 μCi)/mouse) via the tail vein, and sacrificed at 2, 4, 24, 48, 72 h post-injection. Organs and tissues of interest were excised, weighted, and counted on a Perkin Elmer 2480 Wizard® gamma counter (Waltham, MA). The percent injected dose per gram (%ID/g) and percent injected dose per organ (%ID/organ) were calculated by comparison to a weighed, counted standard for each group (Tables S9 – S12).
# Statistical Methods. All of the data are presented as mean±SD or mean (95% Confidence Interval). For statistical classification a student’s t test (two-tailed, unpaired) was performed using GraphPad Prism (San Diego, CA). Any p<0.05 was considered significant.
# [4] = In vitro serum stability (radio-ITLC); assay type: in vitro ADME; conditions: 37 C, after 7 days
# Procedure: In vitro serum stability. In vitro serum stability was carried out by adding 10 µL of each 89Zr-labeled complex (70 μCi, 2.59 MBq) to 500 µL of human serum. The solutions (n=4) were incubated at 37 °C for 7 days and were analyzed daily for 1 week by radio -TLC using Varian ITLC-SA strips and 0.1 M EDTA (pH 5) as the mobile phase and gamma counting using an energy window of 500-1500 keV and standard protocols . Serum samples were also analyzed after 7 days by size exclusion chromatography (SEC) using a Superdex 200 10/300 GLTM column (GE Healthcare Life Sciences, Piscataway, NJ) and phosphate buffered saline (PBS) as eluent with a flow rate of 0.5 mL/min.
# Figure S30. Radio-ITLC of 89Zr-DOTA solution in human serum at 37 °C after 0 h (a) and 7 days (b). […]
# [5] = intravenous, 72 h post-injection
smiles,measurement,setting,value
"CC(=O)N1CCCCCNC(=O)CCC(=O)N2CCCCCNC(=O)CCC(=O)N(CCCCCN)[O][89Zr+]([O]1)[O]2 [89Zr-DFO, reference compound]",% Intact of 89Zr-complexes,"[1]; EDTA 100-fold, pH 5.0, 37 C, 30 min",93.0 ± 0.7%
same,% Intact of 89Zr-complexes,"[1]; EDTA 100-fold, pH 5.0, 37 C, 1 h",85.5 ± 0.9%
same,% Intact of 89Zr-complexes,"[1]; EDTA 100-fold, pH 5.0, 37 C, 3 h",59.6 ± 0.8%
same,% Intact of 89Zr-complexes,"[1]; EDTA 100-fold, pH 5.0, 37 C, 6 h",29.4 ± 0.7%
same,% Intact of 89Zr-complexes,"[1]; EDTA 100-fold, pH 5.0, 37 C, 1 d",6.6 ± 0.3%
same,% Intact of 89Zr-complexes,"[1]; EDTA 100-fold, pH 5.0, 37 C, 3 d",5.4 ± 0.3%
same,% Intact of 89Zr-complexes,"[1]; EDTA 100-fold, pH 5.0, 37 C, 5 d",4.4 ± 0.2%
same,% Intact of 89Zr-complexes,"[1]; EDTA 100-fold, pH 5.0, 37 C, 7 d",3.6 ± 0.1%
same,% Intact of 89Zr-complexes,"[1]; EDTA 100-fold, pH 7.0, 37 C, 30 min",99.0 ± 0.4%
same,% Intact of 89Zr-complexes,"[1]; EDTA 100-fold, pH 7.0, 37 C, 1 h",96.6 ± 1.1%
same,% Intact of 89Zr-complexes,"[1]; EDTA 100-fold, pH 7.0, 37 C, 3 h",90.3 ± 0.8%
same,% Intact of 89Zr-complexes,"[1]; EDTA 100-fold, pH 7.0, 37 C, 6 h",89.4 ± 0.2%
same,% Intact of 89Zr-complexes,"[1]; EDTA 100-fold, pH 7.0, 37 C, 1 d",88.6 ± 0.2%
same,% Intact of 89Zr-complexes,"[1]; EDTA 100-fold, pH 7.0, 37 C, 3 d",87.2 ± 0.6%
same,% Intact of 89Zr-complexes,"[1]; EDTA 100-fold, pH 7.0, 37 C, 5 d",86.6 ± 0.3%
same,% Intact of 89Zr-complexes,"[1]; EDTA 100-fold, pH 7.0, 37 C, 7 d",83.9 ± 0.5%
same,% Intact of 89Zr-complexes,"[1]; EDTA 500-fold, pH 5.0, 37 C, 30 min",60.9 ± 1.0%
same,% Intact of 89Zr-complexes,"[1]; EDTA 500-fold, pH 5.0, 37 C, 1 h",33.9 ± 1.2%
same,% Intact of 89Zr-complexes,"[1]; EDTA 500-fold, pH 5.0, 37 C, 3 h",3.9 ± 0.4%
same,% Intact of 89Zr-complexes,"[1]; EDTA 500-fold, pH 5.0, 37 C, 6 h",0%
same,% Intact of 89Zr-complexes,"[1]; EDTA 500-fold, pH 7.0, 37 C, 30 min",90.3 ± 0.7%
same,% Intact of 89Zr-complexes,"[1]; EDTA 500-fold, pH 7.0, 37 C, 1 h",81.1 ± 1.1%
same,% Intact of 89Zr-complexes,"[1]; EDTA 500-fold, pH 7.0, 37 C, 3 h",58.6 ± 0.3%
same,% Intact of 89Zr-complexes,"[1]; EDTA 500-fold, pH 7.0, 37 C, 6 h",42.7 ± 1.2%
same,% Intact of 89Zr-complexes,"[1]; EDTA 500-fold, pH 7.0, 37 C, 1 d",36.2 ± 0.7%
same,% Intact of 89Zr-complexes,"[1]; EDTA 500-fold, pH 7.0, 37 C, 3 d",31.8 ± 1.1%
same,% Intact of 89Zr-complexes,"[1]; EDTA 500-fold, pH 7.0, 37 C, 5 d",30.4 ± 0.9%
same,% Intact of 89Zr-complexes,"[1]; EDTA 500-fold, pH 7.0, 37 C, 7 d",28.5 ± 0.4%
same,% Intact of 89Zr-complexes,"[1]; EDTA 1000-fold, pH 5.0, 37 C, 30 min",37.7 ± 1.1%
same,% Intact of 89Zr-complexes,"[1]; EDTA 1000-fold, pH 5.0, 37 C, 1 h",14.6 ± 0.7%
same,% Intact of 89Zr-complexes,"[1]; EDTA 1000-fold, pH 5.0, 37 C, 3 h",0%
same,% Intact of 89Zr-complexes,"[1]; EDTA 1000-fold, pH 7.0, 37 C, 30 min",85.6 ± 1.1%
same,% Intact of 89Zr-complexes,"[1]; EDTA 1000-fold, pH 7.0, 37 C, 1 h",68.3 ± 1.2%
same,% Intact of 89Zr-complexes,"[1]; EDTA 1000-fold, pH 7.0, 37 C, 3 h",45.4 ± 0.7%
same,% Intact of 89Zr-complexes,"[1]; EDTA 1000-fold, pH 7.0, 37 C, 6 h",32.9 ± 0.5%
same,% Intact of 89Zr-complexes,"[1]; EDTA 1000-fold, pH 7.0, 37 C, 1 d",28.1 ± 0.7%
same,% Intact of 89Zr-complexes,"[1]; EDTA 1000-fold, pH 7.0, 37 C, 3 d",24.5 ± 0.8%
same,% Intact of 89Zr-complexes,"[1]; EDTA 1000-fold, pH 7.0, 37 C, 5 d",21.4 ± 1.2%
same,% Intact of 89Zr-complexes,"[1]; EDTA 1000-fold, pH 7.0, 37 C, 7 d",20.3 ± 0.5%
same,Loss of metal ions in EDTA challenge,"[1]; after 3 h incubation, 1000-fold excess of EDTA at pH 5",completely lost metal ions
same,% Intact of 89Zr-complexes,"[2]; Co2+, 2 h",99.2 ± 0.2%
same,% Intact of 89Zr-complexes,"[2]; Co2+, 1 d",98.3 ± 0.4%
same,% Intact of 89Zr-complexes,"[2]; Co2+, 4 d",98.1 ± 0.3%
same,% Intact of 89Zr-complexes,"[2]; Co2+, 7 d",95.4 ± 0.9%
same,% Intact of 89Zr-complexes,"[2]; Cu2+, 2 h",98.9 ± 0.5%
same,% Intact of 89Zr-complexes,"[2]; Cu2+, 1 d",98.6 ± 0.4%
same,% Intact of 89Zr-complexes,"[2]; Cu2+, 4 d",97.3 ± 0.7%
same,% Intact of 89Zr-complexes,"[2]; Cu2+, 7 d",96.0 ± 1.0%
same,% Intact of 89Zr-complexes,"[2]; Fe3+, 2 h",96.5 ± 0.2%
same,% Intact of 89Zr-complexes,"[2]; Fe3+, 1 d",76.1 ± 1.3%
same,% Intact of 89Zr-complexes,"[2]; Fe3+, 4 d",53.2 ± 3.8%
same,% Intact of 89Zr-complexes,"[2]; Fe3+, 7 d",33.9 ± 1.5%
same,% Intact of 89Zr-complexes,"[2]; Fe3+, 7 d, listed as 89Zr–DFO",33.9%
same,% Intact of 89Zr-complexes,"[2]; Ga3+, 2 h",99.3 ± 0.2%
same,% Intact of 89Zr-complexes,"[2]; Ga3+, 1 d",93.4 ± 2.6%
same,% Intact of 89Zr-complexes,"[2]; Ga3+, 4 d",81.1 ± 0.5%
same,% Intact of 89Zr-complexes,"[2]; Ga3+, 7 d",72.6 ± 1.3%
same,% Intact of 89Zr-complexes,"[2]; Ga3+, 7 d, listed as 89Zr–DFO",72.6%
same,% Intact of 89Zr-complexes,"[2]; Gd3+, 2 h",99.4 ± 0.3%
same,% Intact of 89Zr-complexes,"[2]; Gd3+, 1 d",98.8 ± 0.1%
same,% Intact of 89Zr-complexes,"[2]; Gd3+, 4 d",98.4 ± 0.3%
same,% Intact of 89Zr-complexes,"[2]; Gd3+, 7 d",96.8 ± 0.2%
same,% Intact of 89Zr-complexes,"[2]; Mg2+, 2 h",99.3 ± 0.1%
same,% Intact of 89Zr-complexes,"[2]; Mg2+, 1 d",98.6 ± 0.5%
same,% Intact of 89Zr-complexes,"[2]; Mg2+, 4 d",97.6 ± 0.8%
same,% Intact of 89Zr-complexes,"[2]; Mg2+, 7 d",96.8 ± 1.2%
same,% Intact of 89Zr-complexes,"[2]; Zn2+, 2 h",99.5 ± 0.1%
same,% Intact of 89Zr-complexes,"[2]; Zn2+, 1 d",98.8 ± 0.3%
same,% Intact of 89Zr-complexes,"[2]; Zn2+, 4 d",97.7 ± 0.6%
same,% Intact of 89Zr-complexes,"[2]; Zn2+, 7 d",95.9 ± 0.7%
same,Radioactivity in blood,[3]; [5],0.0003 ± 0.0005 % ID per g
same,Radioactivity in bone,[3]; [5],0.079 ± 0.014 % ID per g
same,Radioactivity in kidney,[3]; [5],0.69 ± 0.098 % ID per g
same,Radioactivity in liver,[3]; [5],0.066 ± 0.009 % ID per g
same,Radioactivity retention in bone tissue over time,[3]; time points up to 72 h,increases over time
same,Radio-ITLC peak of complex in human serum,[4],100%
